# Literature values in US20230338587A1, “METHOD OF TREATING PSMA-EXPRESSING CANCERS” (ADVANCED ACCELERATOR APPLICATIONS INTERNATIONAL SA, priority 2020, published 2023).
substance,measurement,setting,value
XOMA 089: fully human monoclonal antibody that specifically binds and neutralizes TGF-beta 1 and 2 ligands,cross-reactivity with cynomolgus monkey TGF-β,cynomolgus monkey TGF-β,cross-reacts
same,cross-reactivity with rodent TGF-β,rodent TGF-β,cross-reacts
